Experimental data taken from paper PMC10150354, “Linearization of the Brevicidine and Laterocidine Lipopeptides Yields Analogues That Retain Full Antibacterial Activity” (Journal of Medicinal Chemistry, 2023).
Values after ≈ are worked out from the molar mass of the structure shown. Where a SMILES comes first, the peptide text is derived from it. [ ]: non-standard residue; d: D form. The star is where a group is joined. Octanoyl(7-Me) = CC(C)CCCCCC(=O)*; dOrn = NCCC[C@@H](N)C(=O)O; Orn = NCCC[C@H](N)C(=O)O; Dap = NC[C@H](N)C(=O)O; Alloc = C=CCOC(=O)*; OAll = C=CCO*

Key:
E. coli (MCR-1) = assay type: cell-based, Escherichia coli; settings: microbroth dilution per CLSI, MHB, 18 h at 37 °C, visual inspection, three technical replicates, E. coli 25922 carrying mcr-1
Method: (§1) Linear laterocidine (LL-OH, 4) and linear brevicidine (LB-OH, 5) were first synthesized by Fmoc SPPS, starting from 2-chlorotrityl (2-CT) chloride resin. The antibacterial activity of these peptides was then compared to brevicidine (1) and laterocidine (2) using minimum inhibitory concentration (MIC)/microbroth dilution assays (Table 1). The MICs of all peptides were determined against a panel of Gram-negative and Gram-positive ESKAPE pathogens. Additionally, a strain of E. coli carrying the mcr-1 gene was included in the panel. The mcr-1 gene is a transferrable plasmid that confers resistance against colistin, a last-resort antibiotic for Gram-negative infections, by reducing the overall negative charge of lipopolysaccharide (LPS) through modification of lipid A with phosphoethanolamine. The propensity for cationic antibiotics to bind to the cell membrane is therefore reduced. This gene has been observed in more than 27 bacterial species over six continents.[26] The spread of the mcr-1 gene could render colistin ineffectual; therefore, novel antibacterials are urgently required to overcome this form of resistance.
(§2) All minimum inhibitory concentrations (MICs) were determined according to Clinical and Laboratory Standards Institute (CLSI) guidelines. Blood agar plates were inoculated with glycerol stocks of E. coli ATCC 25922, K. pneumoniae ATCC 13883, A. baumannii ATCC 17961, P. aeruginosa PAO1, and S. aureus USA300. The inoculated agar plates were then incubated for 16 h at 37 °C. Individually grown colonies were subsequently used to inoculate 5 mL aliquots of TSB that were then incubated at 37 °C with shaking at 220 rpm. E. coli 25922 MCR-1 glycerol stock was used to inoculate 5 mL of TSB supplemented with kanamycin that was then incubated for 16 h at 37 °C with shaking at 220 rpm. The next day the culture was diluted 100-fold in TSB supplemented with kanamycin and incubated at 37 °C with shaking at 220 rpm. In parallel, the lipopeptide antibiotics DMSO stocks to be assessed were serially diluted with MHB in polypropylene 96-well plates (50 μL in each well). Colistin sulfate stocks were dissolved in water before being diluted with MHB. Aliquots of the inoculated TSB were incubated until an OD600 of around 0.5 was reached. The bacterial suspensions were then diluted with MHB (2 × 10^5 CFU/mL) and added to the microplates containing the test compounds (50 μL to each well). The well plates were sealed with an adhesive membrane and after 18 h of incubation at 37 °C with shaking at 600 rpm, the wells were visually inspected for bacterial growth. MIC values reported are based on three technical replicates and defined as the lowest concentration of the compound that prevented visible growth of bacteria.

E. coli ATCC 25922 = assay type: cell-based, Escherichia coli; settings: for Antibacterial activity (MIC) E. coli ATCC 25922: microbroth dilution per CLSI, MHB, 18 h at 37 °C, visual inspection, three technical replicates; for MIC (µg/mL) against E. coli (ATCC 25922): (Supplement 2)
Method: as §1, §2

K. pneumoniae ATCC 13883 = assay type: cell-based, Klebsiella pneumoniae; settings: microbroth dilution per CLSI, MHB, 18 h at 37 °C, visual inspection, three technical replicates
Method: as §1, §2

A. baumannii ATCC 17961 = assay type: cell-based, Acinetobacter baumannii; settings: microbroth dilution per CLSI, MHB, 18 h at 37 °C, visual inspection, three technical replicates
Method: as §1, §2

P. aeruginosa PAO1 = assay type: cell-based, Pseudomonas aeruginosa; settings: microbroth dilution per CLSI, MHB, 18 h at 37 °C, visual inspection, three technical replicates
Method: as §1, §2

S. aureus USA300 = assay type: cell-based, Staphylococcus aureus; settings: microbroth dilution per CLSI, MHB, 18 h at 37 °C, visual inspection, three technical replicates
Method: as §1, §2

CC[C@H](C)[C@H](NC(=O)[C@@H](NC(=O)[C@H](Cc1c[nH]c2ccccc12)NC(=O)[C@@H](CCCN)NC(=O)CNC(=O)[C@H](CCCN)NC(=O)[C@@H](CCCN)NC(=O)[C@@H](Cc1c[nH]c2ccccc12)NC(=O)[C@@H](Cc1ccc(O)cc1)NC(=O)[C@@H](C)NC(=O)CCCCCC(C)C)[C@@H](C)O)C(=O)N[C@@H](CC(N)=O)C(=O)NCC(=O)NCC(N)=O [LL(D-Ala1)-NH2 (29)] ({Octanoyl(7-Me)}-[dA][dY][dW][dOrn][Orn]G[dOrn]WTINGG-NH2)
Antibacterial activity (MIC) E. coli (MCR-1) (E. coli (MCR-1)): 8 µg/mL
Antibacterial activity (MIC) E. coli ATCC 25922 (E. coli ATCC 25922): 8 µg/mL
Antibacterial activity (MIC) K. pneumoniae ATCC 13883 (K. pneumoniae ATCC 13883): >32 µg/mL
Antibacterial activity (MIC) A. baumannii ATCC 17961 (A. baumannii ATCC 17961): 32 µg/mL
Antibacterial activity (MIC) P. aeruginosa PAO1 (P. aeruginosa PAO1): 8 µg/mL
Antibacterial activity (MIC) S. aureus USA300 (S. aureus USA300): >32 µg/mL

CC[C@H](C)[C@H](NC(=O)[C@@H](NC(=O)[C@H](Cc1c[nH]c2ccccc12)NC(=O)[C@@H](CCCN)NC(=O)CNC(=O)[C@H](CCCN)NC(=O)[C@@H](CCCN)NC(=O)[C@@H](Cc1c[nH]c2ccccc12)NC(=O)[C@@H](C)NC(=O)[C@@H](CO)NC(=O)CCCCCC(C)C)[C@@H](C)O)C(=O)N[C@@H](CC(N)=O)C(=O)NCC(=O)NCC(N)=O [LL(D-Ala2)-NH2 (30)] ({Octanoyl(7-Me)}-[dS][dA][dW][dOrn][Orn]G[dOrn]WTINGG-NH2)
Antibacterial activity (MIC) E. coli (MCR-1) (E. coli (MCR-1)): 32 µg/mL
Antibacterial activity (MIC) E. coli ATCC 25922 (E. coli ATCC 25922): 32 µg/mL
Antibacterial activity (MIC) K. pneumoniae ATCC 13883 (K. pneumoniae ATCC 13883): >32 µg/mL
Antibacterial activity (MIC) A. baumannii ATCC 17961 (A. baumannii ATCC 17961): >32 µg/mL
Antibacterial activity (MIC) P. aeruginosa PAO1 (P. aeruginosa PAO1): 16 µg/mL
Antibacterial activity (MIC) S. aureus USA300 (S. aureus USA300): >32 µg/mL

CC[C@H](C)[C@H](NC(=O)[C@@H](NC(=O)[C@H](Cc1c[nH]c2ccccc12)NC(=O)[C@@H](CCCN)NC(=O)CNC(=O)[C@H](CCCN)NC(=O)[C@@H](CCCN)NC(=O)[C@@H](C)NC(=O)[C@@H](Cc1ccc(O)cc1)NC(=O)[C@@H](CO)NC(=O)CCCCCC(C)C)[C@@H](C)O)C(=O)N[C@@H](CC(N)=O)C(=O)NCC(=O)NCC(N)=O [LL(D-Ala3)-NH2 (31)] ({Octanoyl(7-Me)}-[dS][dY][dA][dOrn][Orn]G[dOrn]WTINGG-NH2)
Antibacterial activity (MIC) E. coli (MCR-1) (E. coli (MCR-1)): >32 µg/mL
Antibacterial activity (MIC) E. coli ATCC 25922 (E. coli ATCC 25922): >32 µg/mL
Antibacterial activity (MIC) K. pneumoniae ATCC 13883 (K. pneumoniae ATCC 13883): >32 µg/mL
Antibacterial activity (MIC) A. baumannii ATCC 17961 (A. baumannii ATCC 17961): >32 µg/mL
Antibacterial activity (MIC) P. aeruginosa PAO1 (P. aeruginosa PAO1): >32 µg/mL
Antibacterial activity (MIC) S. aureus USA300 (S. aureus USA300): >32 µg/mL

CC[C@H](C)[C@H](NC(=O)[C@@H](NC(=O)[C@H](Cc1c[nH]c2ccccc12)NC(=O)[C@@H](CCCN)NC(=O)CNC(=O)[C@H](CCCN)NC(=O)[C@@H](C)NC(=O)[C@@H](Cc1c[nH]c2ccccc12)NC(=O)[C@@H](Cc1ccc(O)cc1)NC(=O)[C@@H](CO)NC(=O)CCCCCC(C)C)[C@@H](C)O)C(=O)N[C@@H](CC(N)=O)C(=O)NCC(=O)NCC(N)=O [LL(D-Ala4)-NH2 (32)] ({Octanoyl(7-Me)}-[dS][dY][dW][dA][Orn]G[dOrn]WTINGG-NH2)
Antibacterial activity (MIC) E. coli (MCR-1) (E. coli (MCR-1)): >32 µg/mL
Antibacterial activity (MIC) E. coli ATCC 25922 (E. coli ATCC 25922): >32 µg/mL
Antibacterial activity (MIC) K. pneumoniae ATCC 13883 (K. pneumoniae ATCC 13883): >32 µg/mL
Antibacterial activity (MIC) A. baumannii ATCC 17961 (A. baumannii ATCC 17961): 32 µg/mL
Antibacterial activity (MIC) P. aeruginosa PAO1 (P. aeruginosa PAO1): >32 µg/mL
Antibacterial activity (MIC) S. aureus USA300 (S. aureus USA300): >32 µg/mL

CC[C@H](C)[C@H](NC(=O)[C@@H](NC(=O)[C@H](Cc1c[nH]c2ccccc12)NC(=O)[C@@H](C)NC(=O)CNC(=O)[C@H](CCCN)NC(=O)[C@@H](CCCN)NC(=O)[C@@H](Cc1c[nH]c2ccccc12)NC(=O)[C@@H](Cc1ccc(O)cc1)NC(=O)[C@@H](CO)NC(=O)CCCCCC(C)C)[C@@H](C)O)C(=O)N[C@@H](CC(N)=O)C(=O)NCC(=O)NCC(N)=O [LL(D-Ala7)-NH2 (35)] ({Octanoyl(7-Me)}-[dS][dY][dW][dOrn][Orn]G[dA]WTINGG-NH2)
Antibacterial activity (MIC) E. coli (MCR-1) (E. coli (MCR-1)): >32 µg/mL
Antibacterial activity (MIC) E. coli ATCC 25922 (E. coli ATCC 25922): >32 µg/mL
Antibacterial activity (MIC) K. pneumoniae ATCC 13883 (K. pneumoniae ATCC 13883): >32 µg/mL
Antibacterial activity (MIC) A. baumannii ATCC 17961 (A. baumannii ATCC 17961): 32 µg/mL
Antibacterial activity (MIC) P. aeruginosa PAO1 (P. aeruginosa PAO1): 32 µg/mL
Antibacterial activity (MIC) S. aureus USA300 (S. aureus USA300): >32 µg/mL

C=CCOC(=O)NC[C@H](NC(=O)[C@H](Cc1c[nH]c2ccccc12)NC(=O)[C@@H](CCCN)NC(=O)CNC(=O)[C@H](CCCN)NC(=O)[C@@H](CCCN)NC(=O)[C@@H](Cc1c[nH]c2ccccc12)NC(=O)[C@@H](Cc1ccc(O)cc1)NC(=O)[C@@H](CO)NC(=O)CCCCCC(C)C)C(=O)N[C@H](C(=O)N[C@@H](CC(N)=O)C(=O)NCC(=O)NCC(N)=O)[C@@H](C)CC [LL(Dap[Alloc]9)-NH2 (50)] ({Octanoyl(7-Me)}-[dS][dY][dW][dOrn][Orn]G[dOrn]W[Dap](Alloc)INGG-NH2)
Antibacterial activity (MIC) E. coli (MCR-1) (E. coli (MCR-1)): 4 µg/mL
MIC (µg/mL) against E. coli (ATCC 25922) (E. coli ATCC 25922): 2 µg/mL (≈ 1.18 µM)
Antibacterial activity (MIC) E. coli ATCC 25922 (E. coli ATCC 25922): 2 µg/mL
Antibacterial activity (MIC) K. pneumoniae ATCC 13883 (K. pneumoniae ATCC 13883): 4 µg/mL
Antibacterial activity (MIC) A. baumannii ATCC 17961 (A. baumannii ATCC 17961): 4 µg/mL
Antibacterial activity (MIC) P. aeruginosa PAO1 (P. aeruginosa PAO1): 8 µg/mL
Antibacterial activity (MIC) S. aureus USA300 (S. aureus USA300): >32 µg/mL

CC[C@H](C)[C@H](NC(=O)[C@H](CCC(N)=O)NC(=O)[C@H](Cc1c[nH]c2ccccc12)NC(=O)[C@@H](CCCN)NC(=O)CNC(=O)[C@H](CCCN)NC(=O)[C@@H](CCCN)NC(=O)[C@@H](Cc1c[nH]c2ccccc12)NC(=O)[C@@H](Cc1ccc(O)cc1)NC(=O)[C@@H](CO)NC(=O)CCCCCC(C)C)C(=O)N[C@@H](CC(N)=O)C(=O)NCC(=O)NCC(N)=O [LL(Gln9)-NH2 (48)] ({Octanoyl(7-Me)}-[dS][dY][dW][dOrn][Orn]G[dOrn]WQINGG-NH2)
Antibacterial activity (MIC) E. coli (MCR-1) (E. coli (MCR-1)): 8 µg/mL
MIC (µg/mL) against E. coli (ATCC 25922) (E. coli ATCC 25922): 4 µg/mL (≈ 2.43 µM)
Antibacterial activity (MIC) E. coli ATCC 25922 (E. coli ATCC 25922): 4 µg/mL
Antibacterial activity (MIC) K. pneumoniae ATCC 13883 (K. pneumoniae ATCC 13883): 4 µg/mL
Antibacterial activity (MIC) A. baumannii ATCC 17961 (A. baumannii ATCC 17961): 8 µg/mL
Antibacterial activity (MIC) P. aeruginosa PAO1 (P. aeruginosa PAO1): 4 µg/mL
Antibacterial activity (MIC) S. aureus USA300 (S. aureus USA300): >32 µg/mL

C=CCOC(=O)CC[C@H](NC(=O)[C@H](Cc1c[nH]c2ccccc12)NC(=O)[C@@H](CCCN)NC(=O)CNC(=O)[C@H](CCCN)NC(=O)[C@@H](CCCN)NC(=O)[C@@H](Cc1c[nH]c2ccccc12)NC(=O)[C@@H](Cc1ccc(O)cc1)NC(=O)[C@@H](CO)NC(=O)CCCCCC(C)C)C(=O)N[C@H](C(=O)N[C@@H](CC(N)=O)C(=O)NCC(=O)NCC(N)=O)[C@@H](C)CC [LL(Glu[OAll]9)-NH2 (51)] ({Octanoyl(7-Me)}-[dS][dY][dW][dOrn][Orn]G[dOrn]WE(OAll)INGG-NH2)
Antibacterial activity (MIC) E. coli (MCR-1) (E. coli (MCR-1)): 16 µg/mL
MIC (µg/mL) against E. coli (ATCC 25922) (E. coli ATCC 25922): 16 µg/mL (≈ 9.47 µM)
Antibacterial activity (MIC) E. coli ATCC 25922 (E. coli ATCC 25922): 16 µg/mL
Antibacterial activity (MIC) K. pneumoniae ATCC 13883 (K. pneumoniae ATCC 13883): >32 µg/mL
Antibacterial activity (MIC) A. baumannii ATCC 17961 (A. baumannii ATCC 17961): 16 µg/mL
Antibacterial activity (MIC) P. aeruginosa PAO1 (P. aeruginosa PAO1): >32 µg/mL
Antibacterial activity (MIC) S. aureus USA300 (S. aureus USA300): >32 µg/mL
